Here are results for 39 molecules from ChEMBL document CHEMBL3507680, “University of Dundee, Gates Library screen for HepG2 cell viability”.

The series in a line: Human HepG2 cell viability assay in 384 well format. Details: dose 125 nL, time 70.5 hour; concentration not given beside the values. The class given is toxicity, cell-based. To be noted: HepG2 cells, read-out: Inhibition.

As for `CN(Cc1nnc(C2CC2)n1C)S(=O)(=O)c1ccccc1F`, the cytotoxicity at 70.5 h turned out to be 4.23%.

Consider `COC(=O)CC(C)(C)CC(=O)N1CCC(C(F)(F)F)CC1`, for which the cytotoxicity at 70.5 h was found to be 1.71%.

As to `CC(Cn1cccn1)NC(=O)NCCN1CCCCCC1=O` (centres undefined), the cytotoxicity at 70.5 h was 2.55%.

For `CNC(=O)C1CN(Cc2ccc(C#N)cc2F)c2ccccc2O1` (centres undefined), the cytotoxicity at 70.5 h amounted to 1%.

For `CC(C)(C)OC(=O)N1CSC[C@@H]1C(=O)NCc1cccc(C#N)c1`, the cytotoxicity at 70.5 h is -0.236%.

Regarding `CC(C)(C)OC(=O)N1CSC[C@@H]1C(=O)NCc1ccc(C#N)cc1`, the cytotoxicity at 70.5 h was -3.01%.

As to `CC(C)(C)OC(=O)N1CSC[C@@H]1C(=O)NCc1ccsc1`, the cytotoxicity at 70.5 h was -1.79%.

With `CC(C)OCCC(=O)Nc1ncn(CC(=O)N2CCCCCC2)n1`, the cytotoxicity at 70.5 h is -1.46%.

Consider `O=C(CCc1ccco1)Nc1ncn(CC(=O)N2CCCCCC2)n1`, for which the cytotoxicity at 70.5 h was -2.03%.

With `CC(C)(C)CNC(=O)CNC(=O)C1CC1`, the cytotoxicity at 70.5 h stood at 0.566%.

In the case of `Cc1cc2c(cc1C)C(NC1CC1)CCCO2` (centres undefined), the cytotoxicity at 70.5 h came out at 0.0987%.

Consider `NC(=O)N1CCCN(CCc2nc(-c3cccc(Cl)c3)no2)CC1`, for which the cytotoxicity at 70.5 h is 4.65%.

`Cc1nsc(N2CCCN(c3ccc(C#N)cn3)CC2)n1`: the cytotoxicity at 70.5 h was -0.603%.

With `C[S+]([O-])CCCNCc1cc(F)ccc1Br` (centres undefined), the cytotoxicity at 70.5 h amounted to 0.821%.

For the molecule `CCC(C)(NCc1nnc(C(C)(C)C)o1)c1nccs1` (centres undefined), the cytotoxicity at 70.5 h was -0.157%.

On to `COCCN1CC[C@]2(CN(C(=O)c3ccc[nH]3)C[C@H]2C)C1=O`, for which the cytotoxicity at 70.5 h is -7.41%.

Take `CCOCC1CN(CC2CCC2)Cc2nnn(CC3CC3)c21` (centres undefined): the cytotoxicity at 70.5 h was -0.482%.

On to `O=C(NC1CC1)c1cc2c(s1)CCN2C(=O)C1CC1`, for which the cytotoxicity at 70.5 h was -7.29%.

For `Cn1cc(-c2ncnc3c2CCN(C(=O)c2cscn2)CC3)cn1`, the cytotoxicity at 70.5 h came out at 22.4%.

On to `CCS(=O)(=O)N1Cc2nccn2CC(Cn2cccn2)C1` (centres undefined), for which the cytotoxicity at 70.5 h was 1.18%.

For the molecule `O=C(Nc1ccccc1)N1CCc2nc(C(=O)N3CCCC3)sc2CC1`, the cytotoxicity at 70.5 h is -2.49%.

In the case of `NC(=O)c1nc2c(s1)CCN(C(=O)Nc1cccc(Cl)c1)CC2`, the cytotoxicity at 70.5 h worked out at 7.06%.

For `OCc1nnc2n1CCN(c1cnccn1)C2`, the cytotoxicity at 70.5 h was -1.17%.

For `CN1Cc2ccccc2CC2(CCN(Cc3nccn3C)CC2)C1=O`, the cytotoxicity at 70.5 h is -3.31%.

With `CCC1=NC2(CCC(C(=O)Nc3ccc(C)nc3)CC2)C(=O)N1C` (centres undefined), the cytotoxicity at 70.5 h is -2.35%.

Take `CCC1=NC2(CCC(C(=O)Nc3ccc(F)cc3)CC2)C(=O)N1C` (centres undefined): the cytotoxicity at 70.5 h is -5.04%.

In the case of `O=C(c1ccccc1)N1CCC2(CC1)CNc1c(F)cccc12`, the cytotoxicity at 70.5 h is -7.65%.

For the molecule `CCS(=O)(=O)N1CCc2c(CN3CCOCC3)cncc2C1`, the cytotoxicity at 70.5 h was -4.84%.

As to `c1csc(CN2CCC3(CCOCC3COCC3CC3)CC2)n1` (centres undefined), the cytotoxicity at 70.5 h was -3.9%.

Consider `Cc1ccc(CN2CCC3(CC2)COCCN3S(C)(=O)=O)o1`, for which the cytotoxicity at 70.5 h is -4.45%.

For the molecule `Fc1cnc(N2C[C@@H]3C[C@@H](c4nc(C5CC5)cs4)O[C@@H]3C2)nc1`, the cytotoxicity at 70.5 h is -1.67%.

As to `O=S(=O)(C1CC1)N1CCCn2cnc(COc3cccnc3)c2C1`, the cytotoxicity at 70.5 h is -2.62%.

Regarding `Cn1ccnc1CN1CCC2(CC1)Cc1ccccc1CNC2=O`, the cytotoxicity at 70.5 h was -3.2%.

For `CC(C)NC(=O)N1CCc2ncnc(-c3ccncc3)c2CC1`, the cytotoxicity at 70.5 h is -3.38%.

Consider `Cc1oncc1C(=O)N1CC[C@@H]2[C@@H]1CC(=O)N2Cc1cccnc1`, for which the cytotoxicity at 70.5 h is -5.14%.

In the case of `CC(C)N(C)Cc1nnc2n1CCCN(c1ncccn1)C2`, the cytotoxicity at 70.5 h is -2.54%.

For `CO[C@@H]1CCN(Cc2c(C)noc2C)[C@@H]2CN(Cc3ccco3)C[C@@H]21`, the cytotoxicity at 70.5 h is -2.94%.

For `COCC1CN(c2ccc(C)nn2)Cc2cnn(CC3CCOCC3)c21` (centres undefined), the cytotoxicity at 70.5 h was -6.71%.

On to `CO[C@@H]1CCN(Cc2c(C)noc2C)[C@@H]2CN(Cc3cccnc3)C[C@@H]21`, for which the cytotoxicity at 70.5 h was -5.86%.
